Laboratory results: US10098352B2, “Honeybee repellents and uses thereof” (Inscent, Inc., priority 2011, dated 2018)

Key:
[1] = test system: Apis mellifera Carniolan foraging worker honeybees; test: Proboscis extension response (PER) assay in bees conditioned to 2-heptanone; assay type: in vivo; settings: final compound concentration 0.5% (TRITON X-100/water), 4 s exposure; only bees PER-positive to 2-heptanone and negative to controls counted
Experimental: To determine whether a living honeybee can recognize a candidate compound, these compounds were tested using a proboscis extension response (PER) assay using classical conditioning approaches. Proboscis extension response conditioning is a case of appetitive learning, in which bees learn to associate odor stimuli with sucrose reward in the laboratory. In this case, bees were conditioned to produce a PER to 2-heptanone as the conditioned stimulus and a sugar reward as the unconditioned stimulus. These trained bees were then exposed to an odor pulse of a candidate compound to test whether a candidate compound would also produce a PER. If the candidate compound “mimics” 2-heptanone then the honeybee will extend its proboscis.
For conditioning procedures, Apis mellifera Carniolan foraging worker honeybees were obtained from a local apiary (typically 60 bees per shipment). The honeybees were held overnight in insect cages with food and water freely available, in an environmentally controlled room on a light cycle similar to the ambient cycle at the time of the assay.
For conditioning procedures, all tests were done in an odorant delivery apparatus set inside a fume hood. The apparatus comprised a set of open-ended, horizontal, 3 cm diameter by 10 cm long plastic tubes. Each tube was designed where a honeybee could be positioned at the distal end of a tube, with the opening at the other end of the tube located proximal to an inlet of the fume hood. To deliver an odorant, room air was pumped by a diaphragm pump through a particle filter via 0.25 inch plastic tubing at approximately 0.7 m/sec. The air flow passes into the headspace above an odorant (0.5% [v/v]2-heptanone dissolved in odorless light paraffin oil) contained in a 100 mL bottle. The headspace air then passes through another plastic tube to a manifold of 4-way valves, each of which was attached near the proximal end of a plastic tube containing a bee. Each bee was exposed separately for a desired time period to the odorant by opening and closing the appropriate valve. When each valve was closed, the odor was flushed away immediately by the continuous fume hood air stream.
To train a honeybee to respond to a conditioned and unconditioned stimuli, bees were placed, without anesthesia, in individual 1.5 mL micro-centrifuge holding tubes and held overnight without access to food or water. The holding tubes containing the starved bees were placed in racks in groups of eight. One rack at a time was placed behind the odorant delivery apparatus so that each bee's head is centered at the distal end of a horizontal plastic tube. Each bee was exposed to the 2-heptanone odorant alone for four seconds, and then while being fed an 80% sucrose solution for and additional three seconds. The sucrose solution was delivered on a piece of saturated filter paper held in forceps. […] Positive and negative responses were recorded. A positive PER was scored when a bee extended its proboscis before the sucrose appeared. In a typical trial, 48 individual bees were subjected to conditioning. Six rounds of training were done before testing began, and typically a majority of the bees were successfully conditioned by the second or third round of training.
After conditioning, honeybees were tested with the candidate compounds the same day or on the following day or, most commonly, both. When held overnight, bees were fed with sucrose and kept in their holding tubes. When tested the day after training, bees were given one or more rounds of conditioning with 2-heptatone to refresh their memories. Candidate compounds stocks were made at 5% (w/v) in polyoxyethylene octyl phenyl ether (TRITON® X-100), a non-ionic detergent/surfactant, and stored at 4° C. This detergent is similar to substances used as carriers for a variety of commercial pest-control agents, can act as a solvent for both hydrophilic and hydrophobic substances, and is itself nearly odorless. […]

[2] = test system: OBP2; test: Fluorescent-quench ligand-protein-binding assay (OBP2 binding screen); parameters: species or system Apis mellifera; key: Low, indicates no detectable binding to OBP2.; Moderate, indicates that 50% or less of the compound bound to OBP2.; Strong, indicates that 51% or more of the compound bound to OBP2
Description: To identify a honeybee repellent disclosed herein, candidate compounds were screened based upon the fact that 2-heptanone is an established repellent of bees. 2-heptanone is thought to mediate its behavioral response through binding to a specific odorant-binding protein called OBP2. Therefore compounds that bind OBP2 have the potential to act as odor “mimics” of 2-heptanone. By utilizing a fluorescent-quench, ligand-protein-binding assay, 30,000 compounds from the DIVERSET® library (ChemBridge Corp., San Diego, Calif.), a chemical library, were screened and over 150 candidate compounds were isolated that bind OBP2 (Table 1). Such assays are generally known in the art. See, e.g., Briand, et al., Ligand-Binding Properties and Structural Characterization of a Novel Rat Odorant-Binding Protein Variant, Eur. J. Biochem. 267(10): 3079-3089 (2000); Briand, et al., Ligand Binding and Physico-Chemical Properties of ASP2, A Recombinant Odorant-Binding Protein From Honeybee (Apis mellifera L.), Eur. J. Biochem. 268(3): 752-760 (2001); Briand, et al., Characterization of a Chemosensory Protein (ASP3c) from Honeybee (Apis mellifera L.) as a Brood Pheromone Carrier, Eur. J. Biochem. 269(18): 4586-4596 (2002), each of which is hereby incorporated by reference in its entirety.

For `COC(=O)C1=C(C(=O)OC)SC(=C2C(=S)C(C)(C)N(C)c3ccccc32)S1` [compound 4], the “2-heptanone positive bees testing positive to compound” value [1] was 4.7%.

`COc1ccccc1N1C(=O)C(=Cc2ccc(Cl)cc2)SC1=S` [compound 5] was tested, and the “2-heptanone positive bees testing positive to compound” value [1] was 7.1%.

With `CCN(CC)c1ccc2c(C)c([N+](=O)[O-])c(=O)oc2c1` [compound 6] the “2-heptanone positive bees testing positive to compound” value [1] was 0.0%.

For `CC1=CC(C)(C)N(C(=O)c2ccc(Br)cc2)c2ccccc21` [compound 11], the “OBP2 binding characteristic of compound” value [2] was “Moderate (Moderate, indicates that 50% or less of the compound bound to OBP2.)” and the “2-heptanone positive bees testing positive to compound” value [1] was 4.8%.

With `CCOc1ccc(C=Nc2ccc(Br)c(Cl)c2)cc1` [compound 12] the “2-heptanone positive bees testing positive to compound” value [1] was 5.8%.

In the case of `COc1ccc2ccccc2c1C=NN1C(=O)c2ccccc2C1=O` [compound 13], the “2-heptanone positive bees testing positive to compound” value [1] is reported as 8.7%.

`O=[N+]([O-])c1ccc(N2CCOCC2)cc1OCCOc1ccccc1` [compound 14] was tested, and the “OBP2 binding characteristic of compound” value [2] was “Moderate (Moderate, indicates that 50% or less of the compound bound to OBP2.)” and the “2-heptanone positive bees testing positive to compound” value [1] was 3.9%.

`CCN1C(=O)C(=Cc2ccc(O)cc2)SC1=S` [compound 15] was tested, and the “OBP2 binding characteristic of compound” value [2] was “Strong (Strong, indicates that 51% or more of the compound bound to OBP2.)” and the “2-heptanone positive bees testing positive to compound” value [1] was 4.1%.

With `CCCCn1c(=O)c(C(=O)NCc2ccccn2)c(O)c2ccccc21` [compound 16] the “OBP2 binding characteristic of compound” value [2] was “Strong (Strong, indicates that 51% or more of the compound bound to OBP2.)” and the “2-heptanone positive bees testing positive to compound” value [1] was 6.2%.

With `COc1ccc2oc(C)c(C(=O)c3ccc(Br)cc3)c2c1` [compound 17] the “OBP2 binding characteristic of compound” value [2] was “Strong (Strong, indicates that 51% or more of the compound bound to OBP2.)” and the “2-heptanone positive bees testing positive to compound” value [1] was 6.2%.

With `O=c1[nH]c2ccccc2nc1-c1ccccc1NCc1ccc(F)cc1` [compound 18] the “OBP2 binding characteristic of compound” value [2] was “Strong (Strong, indicates that 51% or more of the compound bound to OBP2.)” and the “2-heptanone positive bees testing positive to compound” value [1] was 4.1%.

In the case of `COC(=O)C1=C(C(=O)OC)SC(=C2C(=S)C(C)(C)Nc3cc(C)ccc32)S1` [compound 19], the “OBP2 binding characteristic of compound” value [2] is reported as “Strong (Strong, indicates that 51% or more of the compound bound to OBP2.)” and the “2-heptanone positive bees testing positive to compound” value [1] is reported as 2.8%.

For `CCOC(=O)c1cc(-c2cccc(N)c2)nc2ccccc12` [compound 21], the “OBP2 binding characteristic of compound” value [2] was “Strong (Strong, indicates that 51% or more of the compound bound to OBP2.)” and the “2-heptanone positive bees testing positive to compound” value [1] was 4.4%.

For `CC(C)Nc1c(Cl)c(Cl)c(Cl)c2c1C(=O)c1ccccc1C2=O` [compound 22], the “OBP2 binding characteristic of compound” value [2] was “Strong (Strong, indicates that 51% or more of the compound bound to OBP2.)” and the “2-heptanone positive bees testing positive to compound” value [1] was 4.4%.

For `O=C(C=Cc1ccccc1)OCC1CCCN(Cc2cccc([N+](=O)[O-])c2)C1` (stereo not shown) [compound 23], the “OBP2 binding characteristic of compound” value [2] was “Strong (Strong, indicates that 51% or more of the compound bound to OBP2.)” and the “2-heptanone positive bees testing positive to compound” value [1] was 3.3%.

In the case of `O=[N+]([O-])c1cc2c(cc1CN1CCN(c3cccc(Cl)c3)CC1)OCO2` [compound 24], the “2-heptanone positive bees testing positive to compound” value [1] is reported as 4.8%.

In the case of `COc1ccc(CN2CCN(C)CC2)c(C)c1C` [compound 25], the “OBP2 binding characteristic of compound” value [2] is reported as “Low*” and the “2-heptanone positive bees testing positive to compound” value [1] is reported as 6.6%.

For `COc1ccc(CN2CCN(c3cccc(C)c3C)CC2)c(C)c1C` [compound 29], the “OBP2 binding characteristic of compound” value [2] was “Low*” and the “2-heptanone positive bees testing positive to compound” value [1] was 0.0%.

`COc1cc(C)c(CN2CCN(CCO)CC2)cc1C` [compound 31] was tested, and the “2-heptanone positive bees testing positive to compound” value [1] was 0.0%.
